Source: article PMC10067098 (Cancer Medicine, 2023)

Assay: plasma pharmacokinetics, non‐compartmental analysis
Assay type: in vivo, human
Conditions: Day 1 in Cycle 1 or Day 1 in Cycle 2; data not shown
Method: In addition, trough plasma concentration (C trough) was measured on Day 7 in Cycle 0, and Day 1 in Cycles 1 and 2.
TEAEs were tabulated by system organ class (SOC) and preferred term (PT). For the other safety and PK endpoints, continuous data were described by mean and standard deviation (SD), median and range, and categorical data were summarized by frequency. The proportionality of the PK parameters, C max and AUC10h, was evaluated using a power model (see Table 4). For the efficacy endpoints, best overall response was tabulated as a frequency table, and the time‐to‐event data such as duration of response, PFS, and OS was evaluated using Kaplan–Meier method. All analyses were conducted using SAS® Version 9.4 (SAS Institute).

mean C max and AUC among cohorts: no specific pattern was observed
SMILES: COc1cc2ncnc(Nc3ccc(F)c(Cl)c3)c2cc1OCCCN1CCOCC1 [gefitinib]
